US20230241196A1, “GONORRHEA SUBUNIT VACCINE” (priority 2020, published 2023)
Converted amounts (≈) assume the structure as drawn. Marks after values point to notes of the source that are not given here.

Tests used:
[1] = tested on: isogenic knockout ΔmetQ (FA1090); test: Etest antibiotic susceptibility, ΔmetQ knockout; type: cell-based, Neisseria gonorrhoeae; conditions: ~22 h, MIC repeated at least twice of three, unit assumed
Excerpt: (§1) Prokaryotic lipoproteins play versatile functions ranging from cell envelope stability to nutrient acquisition, substrate binding for ABC transporter systems, modulation of the host immune system, signal transduction, and virulence (Kovacs-Simon et al.Infect Immun 79, 548-561 (2011); Hayashi and Wu, PLoS pathogens 14, e1007081 (2018)). […] The henotypes associated with deletion of metQ were explored. A null mutant in ngo2139 ΔmetQ) and its complemented mutant ΔmetQ/Plac::metQ in Ng FA1090 were constructed (Zielke et al., Mol Cell Proteomics 15, 2338-2355 (2016)). It was first examined whether complete elimination of MetQ affects cell envelope homeostasis by exposing bacteria to seven antibiotics with different mechanisms of action using Etest assays.
(§2) Etest antimicrobial sensitivity assessments: The susceptibility of WT FA1090, isogenic knockout ΔmetQ, and complementation strain ΔmetQ/Plac: :metQ to seven antimicrobial compounds was assessed by Etests as previously (Zielke et al., PLoS pathogens 14, e1007081 (2018)), according to manufacturer’s instructions. Briefly, non-piliated colonies of each strain were suspended in GCBL to a turbidity equivalent to that of a 0.5 McFarland standard and spread on 150 mm tissue culture dishes filled with 50 mL GCB to a thickness of 4 mm. Etest strips were placed on the agar surface and plates were cultured for ~22 h, at which point the MICs were determined. Sensitivity assessments were performed three times, and MIC values that repeated at least twice are reported.

[2] = tested on: complementation strain ΔmetQ/Plac::metQ (FA1090); test: Etest antibiotic susceptibility, complementation strain; type: cell-based, Neisseria gonorrhoeae; conditions: ~22 h, MIC repeated at least twice of three
Excerpt: as §1, §2

WT FA1090 = test: Etest antibiotic susceptibility, WT strain; type: cell-based, Neisseria gonorrhoeae; conditions: ~22 h, MIC repeated at least twice of three, unit assumed
Method: The henotypes associated with deletion of metQ were explored. […] It was first examined whether complete elimination of MetQ affects cell envelope homeostasis by exposing bacteria to seven antibiotics with different mechanisms of action using Etest assays.
Briefly, non-piliated colonies of each strain were suspended in GCBL to a turbidity equivalent to that of a 0.5 McFarland standard and spread on 150 mm tissue culture dishes filled with 50 mL GCB to a thickness of 4 mm. Etest strips were placed on the agar surface and plates were cultured for ~22 h, at which point the MICs were determined. Sensitivity assessments were performed three times, and MIC values that repeated at least twice are reported.

rMetQ = test: Pilot immunogenicity: immunoblot of rMetQ with serum of immunized mice; type: in vivo, Neisseria gonorrhoeae; conditions: BALB/c mice, groups of 5; subcutaneous prime, three intranasal boosts
Method: First, the immunogenicity of rMetQ was tested by immunizing groups of 5 BALB/c mice with rMetQ, rMetQ-CpG, CpG, or PBS using a subcutaneous prime immunization, followed by a regimen of three intranasal boost doses. A robust, single protein band corresponding to the molecular weight of rMetQ (~30 kDa) was detected in immunoblots with serum derived from mice immunized with rMetQ alone. […] Based on these encouraging results, large-scale immunization/challenge experiments were performed. […] Vaginal washes were collected after the second boost, and antigen-specific antibody titers were assessed in serum collected 14 days after the third boost. […] Bacterial clearance was assessed by enumerating Ng CFUs present in vaginal washes on days 1, 3, 5, and 7 post-infection (FIG. 3C). […]
Densitometry analysis: The expression of MetQ during WT FA1090 infection in female BALB/c mice and intensities of protein bands detected in serum specificity studies were determined by densitometry using FIJI software (Schindelin et al., Nature methods 9, 676-682 (2012)). The amount of MetQ on day 1 post-infection was arbitrarily set to 1 and the protein abundance on days 3 and 5 is expressed relative to the MetQ cellular pool detected on day 1.

CO/N=C(\C(=O)N[C@@H]1C(=O)N2C(C(=O)O)=C(COC(C)=O)CS[C@H]12)c1csc(N)n1 [Cefotaxime]
MIC (Etest) [1]: 0.004 µg/mL (≈ 0.00878 µM) | MIC (Etest) ([2]; unit assumed): 0.008 µg/mL (≈ 0.0176 µM) | MIC (Etest) (WT FA1090): 0.004 µg/mL (≈ 0.00878 µM)

CN[C@H](CC(C)C)C(=O)N[C@H]1C(=O)N[C@@H](CC(N)=O)C(=O)N[C@H]2C(=O)N[C@H]3C(=O)N[C@H](C(=O)N[C@H](C(=O)O)c4cc(O)cc(O)c4-c4cc3ccc4O)[C@H](O)c3ccc(c(Cl)c3)Oc3cc2cc(c3O[C@@H]2O[C@H](CO)[C@@H](O)[C@H](O)[C@H]2O[C@H]2C[C@](C)(N)[C@H](O)[C@H](C)O2)Oc2ccc(cc2Cl)[C@H]1O [Vancomycin]
MIC (Etest) [1]: 8 µg/mL (≈ 5.52 µM) | MIC (Etest) ([2]; unit assumed): 8 µg/mL (≈ 5.52 µM) | MIC (Etest) (WT FA1090): 8 µg/mL (≈ 5.52 µM)

CC1(C)S[C@@H]2[C@H](NC(=O)Cc3ccccc3)C(=O)N2[C@H]1C(=O)O [Benzylpenicillin]
MIC (Etest) [1]: 0.064 µg/mL (≈ 0.191 µM) | MIC (Etest) ([2]; unit assumed): 0.064 µg/mL (≈ 0.191 µM) | MIC (Etest) (WT FA1090): 0.064 µg/mL (≈ 0.191 µM)

Polymyxin B
MIC (Etest) [1]: 64 µg/mL | MIC (Etest) ([2]; unit assumed): 64 µg/mL | MIC (Etest) (WT FA1090): 64 µg/mL

CC[C@H]1OC(=O)[C@H](C)[C@@H](O[C@H]2C[C@@](C)(OC)[C@@H](O)[C@H](C)O2)[C@H](C)[C@@H](O[C@@H]2O[C@H](C)C[C@H](N(C)C)[C@H]2O)[C@](C)(O)C[C@@H](C)CN(C)[C@H](C)[C@@H](O)[C@]1(C)O [Azithromycin]
MIC (Etest) [1]: 0.032 µg/mL (≈ 0.0427 µM) | MIC (Etest) [2]: 0.5^b | MIC (Etest) (WT FA1090): 0.032 µg/mL (≈ 0.0427 µM)

B1: rMetQ: untagged recombinant N. gonorrhoeae FA1090 MetQ lacking the lipoprotein signal peptide; sequence in FIG. 8 (SEQ ID NO: 4) (protein, listed as Neisseria gonorrhoeae)
chain: GAMEKDSAPAASAAAPSADNGAAKKEIVFGTTVGDFGDMVKEQIQAELEKKGYTVKLVEFTDYVRPNLALAEGELDINVFQHKPYLDDFKKEHNLDITEAFQVPTAPLGLYPGKLKSLEEVKDGSTVSAPNDPSNFARALVMLNELGWIKLKDGINPLTASKADIAENLKNIKIVELEAAQLPRSRADVDFAVVNGNYAISSGMKLTEALFQEPSFAYVNWSAVKTADKDSQWLKDVTEAYNSDAFKAYAHKRFEGYKYPAAWNEGAAKKLAAA
Immunoblot intensity of rMetQ band probed with serum (rMetQ): 44,405 relative intensity units
